Earlier results in patent publication US9669099B2, “Pine bark extract and black pepper essential oil with anti-inflammatory and anti-arthritic action and method of preparing same” (priority 2015, dated 2017).

How the values were obtained:
leukotriene production = conditions: leukotriene as a mediator of inflammation
[1] = tested on: TNF-α (Tumor Necrosis Factor alpha); conditions: fibroblast cultures, all animals assessed

## C=CC(C)(O)CCC=C(C)C (racemic) [(±)-linalool]
Leukotriene production
  inhibitor of leukotriene production: effective as an inhibitor

## CC1=C[C@@H](O)[C@@H]2C[C@H]1C2(C)C (relative stereo) [(+)-cis-verbenol]
Leukotriene production
  inhibitor of leukotriene production: effective as an inhibitor

## C=C(C)C1CC=C(C)CC1 (single isomer, unassigned; (+)) [(+)-limonene]
Leukotriene production
  inhibitor of leukotriene production: effective as an inhibitor

## CC1CCC(C(C)C)C(O)C1 (single isomer, unassigned; (-)) [(−)-menthol]
Leukotriene production
  inhibitor of leukotriene production: effective as an inhibitor

## CC1=CC[C@@H]2C[C@H]1C2(C)C [(+)-α-pinene]
Leukotriene production
  inhibitor of leukotriene production: effective as an inhibitor

## CC1=CC[C@H]2C[C@@H]1C2(C)C [(−)-α-pinene]
Leukotriene production
  inhibitor of leukotriene production: effective as an inhibitor

## C/C1=C\CC/C(C)=C/CC(C)(C)/C=C/C1 [Alpha-humulene]
NF-kB activation
  inhibition of LPS-induced NF-kB activation: inhibit
Neutrophil migration
  inhibition of LPS-induced neutrophil migration: inhibit
Kinin B1 receptors
  prevention of in vivo up-regulation of kinin B1 receptors: ability to prevent
TNF-a and IL-1b
  prevention of production of proinflammatory cytokines TNF-a and IL-1b: ability to prevent

## C=C1CC/C=C(\C)CC[C@@H]2[C@@H]1CC2(C)C [Beta-caryophyllene]
NF-kB activation
  inhibition of LPS-induced NF-kB activation: inhibit
Neutrophil migration
  inhibition of LPS-induced neutrophil migration: inhibit

## CC(C)=CCCC(C)=CC=O [citral]
Leukotriene production
  inhibitor of leukotriene production: effective as an inhibitor

## CC(C)=CCC/C(C)=C/CO [geraniol]
Leukotriene production
  inhibitor of leukotriene production: effective as an inhibitor

## C=C(C)[C@H]1CC=C(C)CC1 [limonene]
[1]
  inhibition of TNF-α: inhibition of TNF-α

## CC1=CCCC(C)(C)C1C=O (stereo not drawn) [α-cyclocitral]
Leukotriene production
  inhibitor of leukotriene production: effective as an inhibitor

## CC1=CC=C(C(C)C)CC1 [α-terpinene]
Leukotriene production
  inhibitor of leukotriene production: effective as an inhibitor

## C=CC(=C)CCC=C(C)C [β-myrcene]
Leukotriene production
  inhibitor of leukotriene production: effective as an inhibitor

## CC1=CCC(C(C)C)=CC1 [γ-terpinene]
Leukotriene production
  inhibitor of leukotriene production: effective as an inhibitor
